In publication PMC6571673, “Cytostatic and Cytotoxic Natural Products against Cancer Cell Models” (Molecules, 2019):
Like-named read-outs stand apart in the source and are kept apart here.

Key:
[1] = Simulated gastric fluid (SGF) stability; format: in vitro ADME; conditions: read-out: SGF stability t1/2
Description: (§1) To gain further information regarding intracellular compound localization, studies were extended to include a marker for the ER (Figure 8). The staining pattern for the individual probes are shown in Figure 8A (ER), Figure 8B (Lysosome) and Figure 8D (probe 9a). […] Moreover, when all three channels were merged, white specks were observed, indicating co-localization of probe 9a with cellular structures that are stained by both ER and lysosomal marker dyes (Figure 8F). […] These mechanisms provide a plausible explanation for the lower potency of compound 9 compared to compound 10. Finally, in vitro ADME (absorption, distribution, metabolism, and elimination) profiles were evaluated for compounds 9 and 10 to compare with the obtained cellular data (Supplementary Material, Figure S10). The aqueous solubility properties at physiological pH (7.40) of compounds 9 and 10 were good compared to controls. […] The combined findings indicate that the steric-effects of the hydroxysuccinate appendage of compound 10 renders it less prone to degradation by lysosomal activity or other competing cellular removal mechanisms.

Plasma stability assay = format: in vitro ADME; conditions: read-out: plasma stability t1/2
Description: as §1

BJ = experiment: CTG viability assay (CellTiter-Glo, 72 h); format: cell-based, human; conditions: for EC50: Homo sapiens, BJ, CellTiter-Glo, 72 h, non-cancerous cells
Procedure: (§2) All human cell lines were incubated at 37 °C in a 5% CO2 atmosphere and maintained under sterile conditions. Cells were tested for Mycoplasma (Lonza, Alpharetta, GA, USA) using the manufacturer’s conditions prior to experiments. Cell lines were purchased from American Type Culture Collection (ATCC, Manassas, VA, USA) or Leibniz-Institute Deutsche Sammlung von Mikroorganismen und Zellkulturen GmbH (DSMZ, Braunschweig, Germany) and cultured without antibiotics unless stated. Leukemia cells were cultured in RPMI and supplemented with 10% fetal bovine serum (FBS, Hyclone, Logan, UT, USA). SUP-B15, and KOPN-8 lines were cultured in RPMI supplemented with 10% FBS (Hyclone), 1% GlutaMAX™, 1% Pen/Step, and 0.1% β-mercaptoethanol. BJ cells were cultured in EMEM media supplemented with 10% FBS (Hyclone). Breast cancer cells (MDA-MB-231 & SUM149) were cultured in DMEM and Ham’s F12 respectively, supplemented with 10% FBS, 1% GlutaMAX™, 1% Pen/Step, and 2 µM cortisol/1 µg/mL insulin for SUM149. Both cells were grown to 80% confluence densities as recommended by ATCC. PBMCs were supplemented with concanavalin-A (5 μg/mL) and IL-2 (50 U/ml). To test general cytotoxicity, the following cell numbers were used for 384 well plates: KOPN-8 (ACC 552, infant human B cell precursor acute lymphoblastic leukemia with MLL-MLLt1/ENL fusion, 1000 cells/well), SUP-B15 (ACC389, human B cell precursor acute lymphoblastic leukemia of pediatric second relapse carrying the ALL-variant (m-bcr) of BCR-ABL1 fusion gene (e1-a2), 1600 cells/well), NALM-06 (DSMZ ACC128, non-T/non-B ALL at relapse with P15INK4B and P16INK4A deletions, 1200 cells/well), UoC-B1 (pediatric BCP-ALL at second relapse with TCF3/E2A-HFL fusion, 1000 cells/well), BJ (CRL-2522, normal human foreskin fibroblast cells, 400 cells/well) and PBMCs (periphery blood monocyte cells from healthy donors, IBC#BDC046, 10,000 cells/well).
(§3) Cytotoxicity evaluation was performed using the CellTiter-Glo Luminescent Cell Viability Assay kit (G7570, Promega, Madison, WI, USA), according to the manufacturer’s instructions. Briefly, the cell concentrations used were experimentally determined to ensure logarithmic growth during the 72-h duration of the experiment, and avoid adverse effects on cell growth by DMSO exposure. 1 × 10^3–4.8 × 10^3 or 4 × 10^2–1.2 × 10^3 cells/well were seeded in 96 or 384-well white flat-bottomed plates (3610 or 8804BC, Corning, Corning, NY, USA) in 100 µL or 30 µL/well, respectively. The plates were incubated at 37 °C in 5% CO2 for 24 h before drugging. Test compounds (10 mM in DMSO) in nine 3-fold serial dilutions were dispensed via pintool (Biomek liquid handler, Beckman, Indianapolis, USA) to assay plates. The final concentration of DMSO was 0.3% (v/v) in each well. The positive controls included staurosporine (10 μM), and gambogic acid (10 μM). The plates were incubated for 72 h at 37 °C in 5% CO2, then quenched with CellTiter-Glo® (Promega, Madison, WI, USA, 50 µL/96 or 30 µL/384), centrifuged at 1000 rpm for 1 min and incubated at RT for 20 min. Luminescence was recorded with a plate reader (Envision, Perkin Elmer, Waltham, MA, USA). The mean luminescence of each experimental treatment group was normalized as a percentage of the mean intensity of untreated controls. EC50 values were calculated by Pipeline Pilot software (Accelrys, Enterprise Platform, San Diego, CA, USA).

SUP-B15 [2] = experiment: CTG viability assay (CellTiter-Glo, 72 h); format: cell-based, human
Procedure: as §2, §3

[3] = caco-2 permeability assay; format: in vitro ADME; conditions: human, read-out: efflux ratio, B2A/A2B
Description: as §1

PBMC = experiment: CTG viability assay (CellTiter-Glo, 72 h); format: cell-based; conditions: Homo sapiens, non-cancerous cells
Procedure: as §2, §3

Aqueous solubility = format: physicochemical; conditions: physiological pH (7.40), compared to controls
Description: as §1

PAMPA assay = format: in vitro ADME
Description: as §1

[4] = Metabolic stability in liver microsomes; format: in vitro ADME; conditions: for half-life: read-out: metabolic stability t1/2
Description: as §1

SUP-B15 [5] = experiment: ApoTox-Glo triplex assay; format: cell-based, human; conditions: SUP-B15, 36 h; 9 0.2–100 µM, 10 0.02–10 µM
Procedure: Cells (9.5 × 10^4 cells/well in 75 µL) were dispensed in 96-well black flat bottom (8807BC, Corning) plates. The cells were incubated for 12 h at 37 °C and treated with compounds (25 µL) for 36 h. DMSO was used as a negative control and camptothecan was used as the positive control. Then, the experiment was stopped by adding the Viability/Cytotoxicity Reagent, and briefly mixed by orbital shaking (300–500 rpm for ~30 s). Plates were incubated for 30 min at 37 °C and fluorescence was measured at the wavelength 400Ex/505Em for viability and 485Ex/520Em for cytotoxicity in an Envision plate reader (Perkin Elmer). Finally, the Caspase-Glo® 3/7 Reagent was added, and the plates were mixed by orbital shaking (300–500 rpm for ~30 s), followed by an additional 30 min incubation at RT. Luminescence was recorded with a plate reader (Envision, Perkin Elmer) to capture caspase 3/7 activation and determine apoptosis induction.

| SMILES | half-life (Plasma stability assay; human plasma) | half-life (Plasma stability assay; mouse plasma) | EC50 (BJ) | efflux ratio [3] | EC50 (PBMC) | aqueous solubility (Aqueous solubility) | caspase 3/7 activity (SUP-B15 [5]) | cytotoxicity by membrane integrity (bis-AAF-RF110) (SUP-B15 [5]) | viability (GF-AFC) (SUP-B15 [5]) | further results |
| --- | --- | --- | --- | --- | --- | --- | --- | --- | --- | --- |
| COC1=C[C@]23CCCN2CCc2cc4c(cc2[C@@H]3[C@@H]1O)OCO4 [Compound 9, cephalotaxine] | > 25 h | > 25 h | > 43.3 µM | ~2 | > 83 µM | good | increased caspase 3/7 activity | little cytotoxic effects | decreased viability | half-life ([1]; simulated gi fluid): > 33 h; EC50 (SUP-B15 [2]; Homo sapiens, SUP-B15, mean ± SEM of triplicates): 10.4 ± 0.75 µM; PAMPA permeability (PAMPA assay; PAMPA): favorable permeability properties; metabolic stability t1/2 ([4]; human liver microsomes): rapidly degraded; metabolic stability t1/2 ([4]; mouse liver microsomes): rapidly degraded |
| COC(=O)C[C@](O)(CCCC(C)(C)O)C(=O)O[C@@H]1C(OC)=C[C@]23CCCN2CCc2cc4c(cc2[C@H]13)OCO4 [Compound 10, homoharringtonine, reference compound] | > 12 h | < 1 h | > 43.3 µM | < 1 | 6.35 µM | good | increased caspase 3/7 activity | little cytotoxic effects | decreased viability | half-life [1]: > 33 h; activity against BJ (BJ; at the highest tested concentration (43.3 µM)): no observable activity; EC50 (SUP-B15 [2]; Homo sapiens, SUP-B15, 72 h, mean ± SEM of triplicates): 0.0452 µM; EC50 (SUP-B15 [2]; mean ± SEM of triplicates): 0.045 ± 0.005 µM; PAMPA permeability (PAMPA assay): favorable permeability properties; half-life ([4]; human liver microsomes): ≥ 1 h; half-life ([4]; mouse liver microsomes): ≥ 1 h |
